According to patent publication US11656221B2, “Methods to identify modulators of actin-binding proteins” (Regents of the University of Minnesota, priority 2019, dated 2023):
“Also recorded” adds a separate entry of the source.

Assays:
ABD-L253P = molecular target: T1, ABD-L253P (Homo sapiens, UniProt O15020, L253P); assay: Sedimentation of ABD L253P without actin (aggregation); settings: 1.6 μM
T1 construct: His-SUMO (cleaved yes); made in house; host or cells: E. coli BL21(DE3), pE-SUMOpro
Description: F-actin and ABD binding assays were performed as previously described. In brief, binding assays used 1 μM ABD protein, 1 μM F-actin and 1-50 μM compound (as indicated) or DMSO control for a total reaction volume of 60 μL in F-buffer containing 10 mM Tris, pH 7.5, 150 mM NaCl, 0.5 mM ATP, 2 mM MgCl2, and 1 mM DTT. Following 30 min incubation at room temperature (21° C.). F-actin was pelleted using centrifugation at 100,000×g at 25° C. for 30 min. Unbound ABD in the supernatant was measured following SDS-PAGE and Coomassie blue staining in accord. In addition, control co-sedimentations assays that lacked actin were performed to test if compounds cause ABD aggregation. F-actin and Lifeact-mCherry binding assays were undertaken with 2 μM Lifeact-mCherry, 30 μM F-actin and 1-50 μM compound (as indicated) or DMSO control for a total reaction volume of 80 μL in F-buffer. For a no-actin binding control, an assay sample with no F-actin was also set up. Binding reactions were allowed to reach equilibrium at room temperature (21° C.) for 30 min and then F-actin was pelleted by centrifugation at 100,000×g at 25° C. for 30 min. The amount of unbound Lifeact-mCherry was sampled by loading 7 μL of spin supernatant on a low volume black bottom 384-well plate (Greiner). Amount of mCherry was determined by acquiring fluorescence spectrum peak intensity at ˜600 nm using a spectral unmixing plate reader (Fluorescence Innovations, Inc) equipped with a 532 nm laser (Laserglow Technologies, Ontario, Canada) for excitation, 532 nm longpass filter for emission, and PMT for emission detection. The fraction of Lifeact-mCherry bound to F-actin was determined by subtracting from one the fraction of supernatant fluorescence intensity relative to the no-actin control sample, using the following equation: […]
In addition to a reduction in cell viability, the primary and counter screen may be sensitive to compounds that promote ABD-L253P protein aggregation. […] Our ABD-L253P to actin co-sedimentation assay is unlikely to be sensitive to ABD aggregation, as it is set up to monitor maximal sedimentation of ABD-L253P with actin at ˜90% ABD-L253P co-sedimenting. To directly measure the impact of 10 μM Hit compounds on ABD aggregation, we repeated the ABD-actin co-sedimentation without actin present.

[1] = molecular target: T2, ternary complex consisting of GFP-ABD-L253P, Lifeact-mCherry, and actin (Homo sapiens, UniProt O15020, L253P); assay: Primary live-cell time-resolved FRET assay (GFP-ABD-L253P plus Lifeact-mCherry); assay type: cell-based; settings: 12-point concentration response 0.01 to 30 μM, 1536-well plates, average of 3 plates; read-out: EC50 of FRET reduction
T2 construct: L252P β-III-spectrin (human) ABD residues 1-284; expressed in transfected cells; host or cells: HEK293-6E, pTT5 vector, transient
T2 sequence (O15020 1-284 L253P, one chain of several): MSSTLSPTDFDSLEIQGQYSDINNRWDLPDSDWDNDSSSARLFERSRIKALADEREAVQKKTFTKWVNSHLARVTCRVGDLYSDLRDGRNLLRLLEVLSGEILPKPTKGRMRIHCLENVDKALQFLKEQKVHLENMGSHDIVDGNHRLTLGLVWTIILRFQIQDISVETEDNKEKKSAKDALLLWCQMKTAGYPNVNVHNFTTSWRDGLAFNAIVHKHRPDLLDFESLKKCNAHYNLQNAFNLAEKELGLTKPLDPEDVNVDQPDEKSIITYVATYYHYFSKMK

HEK293-6E cells = assay: Trypan blue cell viability assay; assay type: cell-based; settings: 3 μM, 3 hrs
Description: HEK293-6E cell viability was measured using trypan blue (0.03%) staining and a Countess Automated Cell counter (Invitrogen). Non-transfected HEK293-6E cells were spun at 100×g for 5 min at 21° C., and resuspended in 10 mL of PBS. The centrifugation and resuspension were repeated twice more. Final cell concentration was 1×10^6 cells/mL. Cells were incubated with 2% DMSO, or 3-50 μM compound (as indicated) for 3 hrs at room temperature (21° C.). After addition of 100 μL of 0.06% trypan blue solution in PBS, 10 μL was loaded on a slide and injected into the cell counter, and cell viability was measured.

[2] = molecular target: T3, Lifeact-mCherry binding to F-actin (Oryctolagus cuniculus, UniProt P68135); assay: F-actin and Lifeact-mCherry co-sedimentation assay; design: species or system New Zealand white rabbit (Oryctolagus cuniculus); settings: 3 μM, 2 μM Lifeact-mCherry, 30 μM F-actin
T3 construct: Actin was purified from acetone powder derived from the psoas muscle; made in house; host or cells: actin from rabbit psoas muscle; Lifeact-mCherry from E. coli, pE-SUMOpro
Description: Actin was purified from acetone powder derived from the psoas muscle of New Zealand white rabbit (Oryctolagus cuniculus). Filamentous (F)-actin was stored for up to 3 days on ice before use in binding assays. Within an hour of the binding assay, the F-actin was clarified at 100,000×g at 4° C. for 10 min prior to setting up binding assays. The L253P β-III-spectrin ABD was expressed in E. coli BL21(DE3) (Novagen). The ABD was purified and the His-SUMO tag proteolytically removed, as previously described, except size-exclusion chromatography was not performed due to the high purity of the ABD protein. Lifeact-mCherry protein was similarly prepared. A Bradford assay was performed to determine clarified F-actin and ABD protein concentrations.
F-actin and ABD binding assays were performed as previously described. In brief, binding assays used 1 μM ABD protein, 1 μM F-actin and 1-50 μM compound (as indicated) or DMSO control for a total reaction volume of 60 μL in F-buffer containing 10 mM Tris, pH 7.5, 150 mM NaCl, 0.5 mM ATP, 2 mM MgCl2, and 1 mM DTT. Following 30 min incubation at room temperature (21° C.). F-actin was pelleted using centrifugation at 100,000×g at 25° C. for 30 min. Unbound ABD in the supernatant was measured following SDS-PAGE and Coomassie blue staining in accord. In addition, control co-sedimentations assays that lacked actin were performed to test if compounds cause ABD aggregation. F-actin and Lifeact-mCherry binding assays were undertaken with 2 μM Lifeact-mCherry, 30 μM F-actin and 1-50 μM compound (as indicated) or DMSO control for a total reaction volume of 80 μL in F-buffer. For a no-actin binding control, an assay sample with no F-actin was also set up. Binding reactions were allowed to reach equilibrium at room temperature (21° C.) for 30 min and then F-actin was pelleted by centrifugation at 100,000×g at 25° C. for 30 min. The amount of unbound Lifeact-mCherry was sampled by loading 7 μL of spin supernatant on a low volume black bottom 384-well plate (Greiner). Amount of mCherry was determined by acquiring fluorescence spectrum peak intensity at ˜600 nm using a spectral unmixing plate reader (Fluorescence Innovations, Inc) equipped with a 532 nm laser (Laserglow Technologies, Ontario, Canada) for excitation, 532 nm longpass filter for emission, and PMT for emission detection. The fraction of Lifeact-mCherry bound to F-actin was determined by subtracting from one the fraction of supernatant fluorescence intensity relative to the no-actin control sample, using the following equation:
[formula] • Where Fcontrol/DMSO is the peak mCherry fluorescence of assay samples containing compound or DMSO control, and Fno-actin is the peak mCherry fluorescence of assay samples that contained no F-actin. 2.9 Trypan Blue Cell Viability Assays

T1 sequence (O15020 1-284 L253P): as the sequence (O15020 1-284 L253P, one chain of several) above

SMILES: CO[C@H]1C[C@H](CC[C@H](C)[C@H](O)[C@H](C)[C@H]2OC(=O)/C=C/C(C)=C/C[C@H](O)C[C@@H]3C=CC[C@@H](C[C@H](OC)[C@@H](C)[C@@H](O)C[C@@H](O)[C@H](C)[C@@H]([C@@H](C)[C@@H](O)[C@@H](C)CC[C@H]4C[C@H](OC)C[C@H](C)O4)OC(=O)/C=C/C(C)=C/C[C@H](O)C[C@@H]4C=CC[C@@H](C[C@H](OC)[C@@H](C)[C@@H](O)C[C@@H](O)[C@@H]2C)O4)O3)O[C@@H](C)C1 [swinholide A]
- ABD sedimentation without actin (ABD-L253P): does not alter ABD sedimentation
- EC50 [1]: 264 nM
- effect on HEK293-6E cell viability (HEK293-6E cells): did not significantly alter and not
- effect on Lifeact-mCherry binding with actin [2]: did reduce; also recorded: reduce Lifeact-mCherry binding with actin
